Measured values from article PMC9533837 (Antiviral Research, 2003).
In brackets after ≈: the same amount, converted by molar mass. Read-outs that look alike come from different tables or passages of the source.

Experiments:
[1] = system: DNA polymerase of CMV versus human DNA polymerase α; settings: cited from earlier work
[2] = system: VAR-GAR (1966 Brazil Garcia isolate of VAR minor); assay: organism not typed; format: cell-based, variola minor
[3] = system: CPX; parameters: species or system mice; settings: mouse, in vivo
[4] = system: MPX Zaire (V79-1-005-Scab); assay: organism not typed; format: cell-based, monkeypox
[5] = system: Vero cells; settings: African green monkey
[6] = system: VAC Copenhagen; assay: microbe, parasite or virus in culture; format: cell-based, vaccinia virus
[7] = system: CPX Brighton; assay: organism not typed; format: cell-based, cowpox
[8] = system: VAR-BSH (1975 Bangladesh isolate of VAR major); assay: organism not typed; format: cell-based, variola major
[9] = system: VAC; parameters: species or system mice; settings: mouse, in vivo
[10] = system: VAR-YAM (1946 Japan Yamada isolate of VAR major); assay: organism not typed; format: cell-based, variola major
[11] = system: VAR-BSH (1975 Bangladesh isolate of VAR major); assay: organism not typed; format: cell-based, variola major; remark: listed apart in the source
[12] = system: CPX Brighton; assay: organism not typed; format: cell-based, cowpox; remark: listed apart in the source
[13] = system: VAR-YAM (1946 Japan Yamada isolate of VAR major); assay: organism not typed; format: cell-based, variola major; remark: listed apart in the source
[14] = system: VAC Copenhagen; assay: microbe, parasite or virus in culture; format: cell-based, vaccinia virus; remark: listed apart in the source
[15] = system: VAR-GAR (1966 Brazil Garcia isolate of VAR minor); assay: organism not typed; format: cell-based, variola minor; remark: listed apart in the source
[16] = system: MPX Zaire (V79-1-005-Scab); assay: organism not typed; format: cell-based, monkeypox; remark: listed apart in the source
[17] = system: LLC-MK2 cells; settings: rhesus monkey

Nc1ccn(CC(CO)OCP(=O)(O)OP(=O)(O)OP(=O)(O)O)c(=O)n1 (centres unmarked) [Cidofovir diphosphate, cidofovir 5′-diphosphate]
lower concentration inhibiting DNA polymerase of CMV than human DNA polymerase α [1]: 10 fold

Nc1nccc2c1ncn2C1C=C(CO)C(O)C1O (single isomer, unassigned; (-)) [C3-Npc A, (−)-9-[trans-2′-trans-3′-dihydroxy-4′-hydroxymethyl-cyclopent-4′-enyl]-3-deazaadenine]
Therapeutic index (TI) VAR-GAR Vero [2]: 2500 | IC50 ([2]; Vero, read-out: IC50 VAR-GAR Vero): 0.04 µg/mL (≈ 0.153 µM) | protective effect on CPX-infected mice [3]: modest protective effect | Therapeutic index (TI) MPX LLC-MK2 [4]: 2000 | IC50 ([4]; LLC-MK2, read-out: IC50 MPX LLC-MK2): 0.05 µg/mL (≈ 0.191 µM) | Cytotoxicity TC50 Vero [5]: >100 µg/mL | Therapeutic index (TI) VAC Vero [6]: 5000 | IC50 ([6]; Orthopoxvirus vaccinia, Vero, read-out: IC50 VAC Vero): 0.02 µg/mL (≈ 0.0763 µM) | Therapeutic index (TI) CPX Vero [7]: 1.0 | IC50 ([7]; Vero, read-out: IC50 CPX Vero): > 100 µg/mL | Therapeutic index (TI) VAR-BSH LLC-MK2 [8]: 213 | IC50 ([8]; LLC-MK2, read-out: IC50 VAR-BSH LLC-MK2): 0.47 µg/mL (≈ 1.79 µM) | protective effect on VAC-infected mice [9]: modest protective effect | Therapeutic index (TI) VAR-YAM Vero [10]: 2500 | IC50 ([10]; Vero, read-out: IC50 VAR-YAM Vero): 0.04 µg/mL (≈ 0.153 µM) | Therapeutic index (TI) VAR-BSH Vero [11]: 3333 | IC50 ([11]; Vero, read-out: IC50 VAR-BSH Vero): 0.03 µg/mL (≈ 0.114 µM) | Therapeutic index (TI) CPX LLC-MK2 [12]: 1.0 | IC50 ([12]; LLC-MK2, read-out: IC50 CPX LLC-MK2): > 100 µg/mL | Therapeutic index (TI) VAR-YAM LLC-MK2 [13]: 417 | IC50 ([13]; LLC-MK2, read-out: IC50 VAR-YAM LLC-MK2): 0.24 µg/mL (≈ 0.915 µM) | Therapeutic index (TI) VAC LLC-MK2 [14]: 2000 | IC50 ([14]; Orthopoxvirus vaccinia, LLC-MK2, read-out: IC50 VAC LLC-MK2): 0.05 µg/mL (≈ 0.191 µM) | Therapeutic index (TI) VAR-GAR LLC-MK2 [15]: 222 | IC50 ([15]; LLC-MK2, read-out: IC50 VAR-GAR LLC-MK2): 0.45 µg/mL (≈ 1.72 µM) | Therapeutic index (TI) MPX Vero [16]: 10000 | IC50 ([16]; Vero, read-out: IC50 MPX Vero): 0.01 µg/mL (≈ 0.0381 µM) | Cytotoxicity TC50 LLC-MK2 [17]: >100 µg/mL
